This is an account of results in patent US20230398130A1, “METHODS AND COMPOSITIONS FOR DIFFERENTIATING STEM CELLS” (Massachusetts Institute of Technology, priority 2020, published 2023).

The subject of assay [1] is ISC-enriched organoids. The assay can be described thus: Primary screen, 384-well 2.5-D organoid differentiation (ENR+CD, 6 days): basal lysozyme secretion (LYZ.NS). Format: cell-based, murine. The conditions noted are these: primary screen; for Dose.FC.LYZ.NS: ENR+CD 6 days, FC vs plate median; for Z.LYZ.NS: standard z score of FC. From the text: (§1) High-throughput screening.

In assay [2] the test system is ISC-enriched organoids. The assay can be described thus: Primary screen, 384-well 2.5-D organoid differentiation (ENR+CD, 6 days): carbachol-induced lysozyme secretion (LYZ.S). Format: cell-based, murine. The note with it: primary screen, ENR+CD 6 days, FC vs plate median.
Source text: as §1

Assay [3] has as its system ISC-enriched organoids. The assay can be described thus: Primary screen, 384-well 2.5-D organoid differentiation (ENR+CD, 6 days, Target Selective Inhibitor Library, vs whole-plate median): ATP (CellTiter-Glo 3D, CTG). The note with it: primary screen; for Dose.FC.CTG: ENR+CD 6 days, FC vs plate median; for Z.CTG: standard z score of FC. A general note: ATP-based viability assays read luminescence as a measure of living cells.

For `Cc1cc2c(C(C)C)c(O)c(O)c(C=O)c2c(O)c1-c1c(C)cc2c(C(C)C)c(O)c(O)c(C=O)c2c1O` [AT101], the Dose.FC.LYZ.NS in assay [1] (dose 0.08 uM) was −0.049 log 2 fold change; in assay [1] (dose 0.40 uM), −0.068 log 2 fold change; in assay [1] (dose 2.00 uM), −0.036 log 2 fold change; in assay [1] (dose 10.00 uM) it was −0.052 log 2 fold change. The Z.LYZ.NS in assay [1] (dose 0.08 uM) is −0.426; in assay [1] (dose 0.40 uM), −0.592; in assay [1] (dose 2.00 uM), −0.311; in assay [1] (dose 10.00 uM) it was −0.452. In addition, the Dose.FC.LYZ.S in assay [2] (dose 0.08 uM) is 0.004 log 2 fold change; in assay [2] (dose 0.40 uM), −0.013 log 2 fold change; in assay [2] (dose 2.00 uM) it was −0.085 log 2 fold change; in assay [2] (dose 10.00 uM), −0.061 log 2 fold change. Further, the Dose.FC.CTG in assay [3] (dose 0.08 uM) was −0.198 log 2 fold change; in assay [3] (dose 0.40 uM), 0.019 log 2 fold change; in assay [3] (dose 2.00 uM), −0.216 log 2 fold change; in assay [3] (dose 10.00 uM), −0.056 log 2 fold change. The Z.CTG in assay [3] (dose 0.08 uM) was −0.472; in assay [3] (dose 0.40 uM), 0.044; in assay [3] (dose 2.00 uM), −0.515; in assay [3] (dose 10.00 uM), −0.133.
As for `CCNC(=O)c1noc(-c2cc(C(C)C)c(O)cc2O)c1-c1ccc(CN2CCOCC2)cc1` [AUY922 (NVP-AUY922)], the Dose.FC.LYZ.NS is reported as −0.144 log 2 fold change in assay [1] (dose 0.08 uM), −0.154 log 2 fold change in assay [1] (dose 0.40 uM), −0.138 log 2 fold change in assay [1] (dose 2.00 uM) and −0.153 log 2 fold change in assay [1] (dose 10.00 uM). In addition, the Z.LYZ.NS in assay [1] (dose 0.08 uM) is listed as −1.251; in assay [1] (dose 0.40 uM), −1.343; in assay [1] (dose 2.00 uM), −1.200; in assay [1] (dose 10.00 uM), −1.330. Moreover, the Dose.FC.LYZ.S in assay [2] (dose 0.08 uM) is listed as −0.209 log 2 fold change; in assay [2] (dose 0.40 uM), −0.184 log 2 fold change; in assay [2] (dose 2.00 uM) it was −0.216 log 2 fold change; in assay [2] (dose 10.00 uM), −0.214 log 2 fold change. Also, the Dose.FC.CTG is on record as −1.185 log 2 fold change in assay [3] (dose 0.08 uM), −1.343 log 2 fold change in assay [3] (dose 0.40 uM), −1.137 log 2 fold change in assay [3] (dose 2.00 uM) and −1.270 log 2 fold change in assay [3] (dose 10.00 uM). Further, the Z.CTG is −2.830 in assay [3] (dose 0.08 uM), −3.208 in assay [3] (dose 0.40 uM), −2.715 in assay [3] (dose 2.00 uM) and −3.032 in assay [3] (dose 10.00 uM).
For the molecule `C=CC(=O)Nc1cccc(Nc2nc(Nc3ccc(OCCOC)cc3)ncc2F)c1` [AVL-292], the Dose.FC.LYZ.NS in assay [1] (dose 0.08 uM) is on record as 0.095 log 2 fold change; in assay [1] (dose 0.40 uM), 0.052 log 2 fold change; in assay [1] (dose 2.00 uM) it was −0.112 log 2 fold change; in assay [1] (dose 10.00 uM), −0.213 log 2 fold change. Moreover, the Z.LYZ.NS was 0.831 in assay [1] (dose 0.08 uM), 0.451 in assay [1] (dose 0.40 uM), −0.979 in assay [1] (dose 2.00 uM) and −1.858 in assay [1] (dose 10.00 uM). The Dose.FC.LYZ.S in assay [2] (dose 0.08 uM) is on record as 0.235 log 2 fold change; in assay [2] (dose 0.40 uM), 0.106 log 2 fold change; in assay [2] (dose 2.00 uM), −0.206 log 2 fold change; in assay [2] (dose 10.00 uM), −0.376 log 2 fold change. Besides, the Dose.FC.CTG in assay [3] (dose 0.08 uM) is 0.217 log 2 fold change; in assay [3] (dose 0.40 uM), 0.057 log 2 fold change; in assay [3] (dose 2.00 uM), −0.058 log 2 fold change; in assay [3] (dose 10.00 uM), −0.778 log 2 fold change. Moreover, the Z.CTG in assay [3] (dose 0.08 uM) is reported as 0.518; in assay [3] (dose 0.40 uM), 0.135; in assay [3] (dose 2.00 uM), −0.138; in assay [3] (dose 10.00 uM), −1.859.
